The source of these data is publication PMC3534865 (Bioorganic & medicinal chemistry letters, 2012).

Structures are written as SMILES. Entries after “also recorded” stand apart in the source; their conditions may differ.

Data set [1] can be described thus: Chemical stability observation. The format is physicochemical. Conditions: presumed air oxidation or self-condensation.
Data set [2] deals with T1, human M1 (hM1) (Homo sapiens, UniProt P11229).
T1 sequence (P11229 1-460): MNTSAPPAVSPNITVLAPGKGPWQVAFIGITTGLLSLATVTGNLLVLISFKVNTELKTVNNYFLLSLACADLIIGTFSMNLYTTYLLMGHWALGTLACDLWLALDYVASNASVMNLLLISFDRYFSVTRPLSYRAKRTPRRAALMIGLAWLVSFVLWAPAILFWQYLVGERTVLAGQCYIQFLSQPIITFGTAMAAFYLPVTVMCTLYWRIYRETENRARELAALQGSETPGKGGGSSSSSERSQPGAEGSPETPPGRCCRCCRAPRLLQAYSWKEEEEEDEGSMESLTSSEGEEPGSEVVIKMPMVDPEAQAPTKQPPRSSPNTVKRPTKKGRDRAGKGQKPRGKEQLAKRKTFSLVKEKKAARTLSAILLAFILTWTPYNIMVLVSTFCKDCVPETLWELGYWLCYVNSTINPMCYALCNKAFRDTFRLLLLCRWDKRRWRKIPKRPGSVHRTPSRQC
Briefly: hM1 PAM functional. The format is cell-based. Particulars: for hM1 PAM activity: tested up to 30 μM; for pEC50: Table 2, hM1, mean ± SEM; for efficacy (% AChmax) compared with ML137: at the highest concentration tested of 30 μM.

In data set [3] the test system is human muscarinic receptor subtypes. The format is cell-based. Conditions: hM1 over the other muscarinic receptor subtypes; Figure 4.
Another data set addresses T2, hM1 (Homo sapiens, UniProt P11229).
T2 sequence (P11229 1-460): T1 sequence (P11229 1-460)
Briefly: ACh fold-shift experiment. Type of data set: cell-based. Conditions: ML137 to 14.

Data set [4] concerns the target T1, human M1 (hM1). Particulars: cited from earlier work.

Consider `Cn1cc(-c2ccc(CN3C(=O)C(C)(O)c4ccccc43)c(F)c2)cn1` (stereo not shown) [Compound 23e], for which, in data set [1], the chemical stability result is “stable”.
With `CC(=O)N(Cc1ccc(-c2cnn(C)c2)cc1F)c1ccccc1` [Compound 17], the “hM1 PAM activity” value at human M1 (hM1) [2] is “inactive”.
On the same count and under the same terms, the same measure for `Cn1cc(-c2ccc(Cn3c(=O)[nH]c4ccccc43)c(F)c2)cn1` [Compound 15]: “not tolerated”.
With `Cn1cc(-c2ccc(CN3C(=O)CSc4ccccc43)c(F)c2)cn1` [Compound 24h], the pEC50 (in general, the negative decadic logarithm of the EC50, by convention in mol/L) on human M1 (hM1) [2] came to 5.49 ± 0.12.
In the case of `Cn1cc(-c2ccc(CN3CCSc4ccccc43)c(F)c2)cn1` [Compound 24k], the “hM1 PAM activity” value at human M1 (hM1) [2] is reported as “no activity at all”.
As for `CN(C)C1(C)C(=O)N(Cc2ccc(-c3cnn(C)c3)cc2)c2ccccc21` (stereo not shown) [Compound 23d], on human M1 (hM1) [2], the “hM1 PAM activity” value is given as “weakly active”.
With `O=C1N(Cc2ccc(-c3cn[nH]c3)cc2F)c2ccccc2C1(O)C(F)(F)F` (stereo not shown) [Compound 23m], the “hM1 PAM activity” value on human M1 (hM1) [2] is “complete loss of activity”.
Still for that read-out and setting: the same measure for `CCCn1cc(-c2ccc(CN3C(=O)C(O)(C(F)(F)F)c4ccccc43)c(F)c2)cn1` (stereo not shown) [Compound 23k]: “complete loss of activity”.
The molecule `Cn1cc(-c2ccc(CN3C(=O)COc4ccccc43)c(F)c2)cn1` [Compound 24e] returned a negative logarithm of the EC50 (pEC50) at human M1 (hM1) [2] of 5.29 ± 0.09.
On to `Cn1cc(-c2ccc(CN3C(=O)c4cccc5cccc3c45)c(F)c2)cn1` [Compound 18], for which the “hM1 PAM activity” value at human M1 (hM1) [2] is “detrimental to activity”.
The same measure, in the same setting: with `Cn1cc(-c2ccc(CN3CCc4ccccc43)c(F)c2)cn1` [Compound 16] the entry was “not tolerated”.
Still for that read-out and setting: with `Cn1cc(-c2ccc(CN3C(=O)C(C)(N)c4ccccc43)c(F)c2)cn1` (stereo not shown) [Compound 23c] the entry was “weakly active”; with `CC(C)n1cc(-c2ccc(CN3C(=O)C(O)(C(F)(F)F)c4ccccc43)c(F)c2)cn1` (stereo not shown) [Compound 23l], “complete loss of activity”.
Regarding `Cn1cc(-c2ccc(CN3C(=O)C(N)c4ccccc43)c(F)c2)cn1` (stereo not shown) [Compound 23b], the “increase in hM1 potency over 14” value on human M1 (hM1) [2] (ratio of EC50 vs 14) came to 2 fold. For the same molecule, in data set [1], the chemical stability result is reported as “undesirable level of chemical instability”.
Turning to `Cn1cc(-c2ccc(CN3C(=O)Cc4ccccc43)c(F)c2)cn1` [Compound 14], on human M1 (hM1) [2] (ML137 to 14), the “decrease in hM1 PAM EC50 (potency) relative to ML137” value is listed as 4 fold. On human M1 (hM1) [2], the “efficacy (% AChmax) compared with ML137” value was “comparable efficacy”. In addition, the “muscarinic receptor subtype selectivity” value in data set [3] was “little-to-no erosion of muscarinic subtype selectivity; also recorded: very selective for the hM1 receptor”. Moreover, the “improvement in ACh fold-shift relative to ML137” value on hM1 was determined as 10 fold.
Regarding `Cn1cc(-c2ccc(Cn3ccccc3=O)c(F)c2)cn1` [Compound 24d], the “hM1 PAM activity” value at human M1 (hM1) [2] is given as “loss of all PAM activity”.
`Cn1cc(-c2ccc(CN3C(=O)C(=O)c4ccccc43)c(F)c2)cn1` [ML137]: on human M1 (hM1) [4], the “%AChmax previously reported” value is 65%.
As for `Cn1cc(-c2ccc(CN3c4ccccc4CS3(=O)=O)c(F)c2)cn1` [Compound 13], at human M1 (hM1) [2], the “efficacy (% AChmax) compared with ML137” value is on record as “comparable efficacy”.
